Laboratory results: patent publication US8765730B2 (Hoffmann-La Roche Inc, priority 2010, dated 2014)
Like-named read-outs stand apart in the source and are kept apart here.

Target: T1, human GPBAR1 receptor (Homo sapiens, UniProt Q8TDU6)
T1 construct: expressed in transfected cells
T1 sequence (Q8TDU6 1-330): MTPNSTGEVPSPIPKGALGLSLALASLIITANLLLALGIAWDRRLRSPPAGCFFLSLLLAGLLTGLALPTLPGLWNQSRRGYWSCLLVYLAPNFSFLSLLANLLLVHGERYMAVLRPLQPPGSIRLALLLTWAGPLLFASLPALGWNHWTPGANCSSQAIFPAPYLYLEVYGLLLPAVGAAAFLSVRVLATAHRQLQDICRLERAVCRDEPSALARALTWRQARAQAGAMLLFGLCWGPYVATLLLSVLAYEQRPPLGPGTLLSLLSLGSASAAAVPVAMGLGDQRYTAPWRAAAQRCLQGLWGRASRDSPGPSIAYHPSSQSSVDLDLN
Test: functional cAMP assay in CHO-dhfr(minus) cells expressing human GPBAR1 receptors
Format: cell-based
Conditions: 30 min at 30° C.
Method in brief: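 Agonist cAMP read-out: stable GPBAR1 CHO-dhfr− clone, 30 min compound exposure at 30° C following 30 min IBMX (1 mM) preincubation in Krebs Ringer bicarbonate. Time-resolved energy-transfer detection gives EC50; parental CHO cells serve as counter-screen.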

[1] = human EC50, functional cAMP assay

Row | SMILES | EC50 [1] | EC50 (functional cAMP assay, read-out: human EC50)
1 | Cn1cc(C(CC(c2ccc(C(=O)NCCO)c(F)c2)c2ccccc2Cl)=NO)ccc1=O (mixture of isomers) [Example 216, (E/Z)-4-(1-(2-Chlorophenyl)-3-(hydroxyimino)-3-(1-methyl-6-oxo-1,6-dihydropyridin-3-yl)propyl)-2-fluoro-N-(2-hydroxyethyl)benzamide] | 255 nM | –
2 | Cc1cc(/C(C[C@H](c2ccc(N3CC(C(=O)O)C3)cc2)c2ccccc2C)=N/O)ccn1 [Example 279, 1-{4-[(R)-3-[(E)-Hydroxyimino]-3-(2-methyl-pyridin-4-yl)-1-o-tolyl-propyl]-phenyl}-azetidine-3-carboxylic acid] | 11 nM | –
3 | Cn1cc(/C(CC(c2ccc(Br)cc2)c2ccc(F)cc2F)=N/O)ccc1=O (stereo not drawn) [Example 402, 5-{3-(4-Bromo-phenyl)-3-(2,4-difluoro-phenyl)-1-[(E)-hydroxyimino]-propyl}-1-methyl-1H-pyridin-2-one] | 6 nM | –
4 | Cc1cc(Cl)ccc1C(C/C(=N\O)c1ccc(=O)n(CCO)c1)c1ccc(S(C)(=O)=O)cc1 (stereo not drawn) [Example 342, (E)-5-(3-(4-Chloro-2-methylphenyl)-1-(hydroxyimino)-3-(4-(methylsulfonyl)phenyl)-propyl)-1-(2-hydroxyethyl)pyridin-2(1H)-one] | 993 nM | –
5 | Cc1cc(/C(C[C@H](c2ccc(C(=O)N(C)CCO)cc2)c2ccccc2C)=N/O)ccn1 [Example 274, N-(2-Hydroxy-ethyl)-4-[(R)-3-[(E)-hydroxyimino]-3-(2-methyl-pyridin-4-yl)-1-o-tolyl-propyl]-N-methyl-benzamide] | 80 nM | –
6 | Cn1cc(/C(CC(c2ccc(-c3ccc(C(=O)O)cc3)cc2)c2ccc(Cl)cc2F)=N/O)ccc1=O (stereo not drawn) [Example 238, 4′-[1-(4-Chloro-2-fluoro-phenyl)-3-[(E)-hydroxyimino]-3-(1-methyl-6-oxo-1,6-dihydro-pyridin-3-yl)-propyl]-biphenyl-4-carboxylic acid] | 23 nM | –
7 | Cc1ccccc1[C@@H](C/C(=N\O)c1ccc(=O)n(C)c1)c1ccc([C@H]2CC[C@@H](C(=O)O)CC2)cc1 [Example 489, cis-4-(4-((S,E)-3-(hydroxyimino)-3-(1-methyl-6-oxo-1,6-dihydropyridin-3-yl)-1-o-tolylpropyl)phenyl)cyclohexanecarboxylic acid] | 582 nM | –
8 | Cc1ccccc1[C@@H](C/C(=N\O)c1cnc(=O)n(C)c1)c1ccc(S(C)(=O)=O)cc1 [Example 502, (S,E)-5-(1-(Hydroxyimino)-3-(4-(methylsulfonyl)phenyl)-3-o-tolylpropyl)-1-methyl-pyrimidin-2(1H)-one] | 477 nM | –
9 | Cc1ccccc1[C@H](C/C(Cc1ccncc1)=N\O)c1ccc(-c2ccc(C(=O)O)cc2)cc1 [Example 298, 4′-{(R)-3-[(E)-Hydroxyimino]-4-pyridin-4-yl-1-o-tolyl-butyl}-biphenyl-4-carboxylic acid] | 411 nM | –
10 | CCS(=O)(=O)c1ccc(-c2ccc(C(C/C(=N\O)c3ccncc3)c3ccccc3)cc2)cc1 (stereo not drawn) [Example 26, (E)-3-(4′-Ethanesulfonyl-biphenyl-4-yl)-3-phenyl-1-pyridin-4-yl-propan-1-one oxime] | 108 nM | –
11 | CN(CCO)C(=O)c1cccc(C(C/C(=N\O)c2ccc(=O)n(C)c2)c2ccc(Cl)cc2F)c1 (stereo not drawn) [Example 321, (E)-3-(1-(4-Chloro-2-fluorophenyl)-3-(hydroxyimino)-3-(1-methyl-6-oxo-1,6-dihydropyridin-3-yl)propyl)-N-(2-hydroxyethyl)-N-methylbenzamide] | 5200 nM | –
12 | Cc1ccccc1[C@@H](C/C(=N\O)c1ccc(=O)n(C)c1)c1ccc(C2CCC(C(=O)O)CC2)cc1 (stereo partly drawn) [Example 487, (S,E)-4-(4-(3-(hydroxyimino)-3-(1-methyl-6-oxo-1,6-dihydropyridin-3-yl)-1-o-tolylpropyl)-phenyl)cyclohexanecarboxylic acid] | 656 nM | –
13 | CCOC(=O)CCCNC(=O)c1ccc(C(C/C(=N\O)c2ccc(=O)n(C)c2)c2ccccc2C)cc1 (stereo not drawn) [Example 212, 4-{4-[3-[(E)-Hydroxyimino]-3-(1-methyl-6-oxo-1,6-dihydro-pyridin-3-yl)-1-o-tolyl-propyl]-benzoylamino}-butyric acid ethyl ester] | – | 153 nM
14 | CS(=O)(=O)c1ccc(-c2ccc(C(C/C(=N\O)c3ccncc3)c3ccccc3)cc2)cc1 (stereo not drawn) [Example 20, (E)-3-(4′-Methanesulfonyl-biphenyl-4-yl)-3-phenyl-1-pyridin-4-yl-propan-1-one oxime] | 66 nM | –
15 | Cc1cc(/C(C[C@H](c2ccc(C3=CCN(C(=O)OC(C)(C)C)CC3)cc2)c2ccccc2C)=N/O)ccn1 [Example 372, (R)-tert-Butyl 4-(4-(3-(hydroxyimino)-3-(2-methylpyridin-4-yl)-1-o-tolylpropyl)phenyl)-5,6-dihydropyridine-1(2H)-carboxylate] | 134 nM | –
16 | O/N=C(\CC(c1ccccc1)c1ccc(Br)cc1)c1cc(Cl)nc(Cl)c1 (stereo not drawn) [Example 47, (E)-3-(4-Bromo-phenyl)-1-(2,6-dichloro-pyridin-4-yl)-3-phenyl-propan-1-one oxime] | 548 nM | –
17 | Cc1ccccc1C(C/C(=N\O)c1cncc(Br)c1)c1cccc(Br)c1 (stereo not drawn) [Example 123, (E)-3-(3-Bromo-phenyl)-1-(5-bromo-pyridin-3-yl)-3-o-tolyl-propan-1-one oxime] | 4540 nM | –
18 | Cc1ccccc1C(C/C(=N\O)c1ccc(=O)n(C)c1)c1ccc(C(=O)NCCCC(=O)O)cc1 (stereo not drawn) [Example 213, 4-{4-[3-[(E)-Hydroxyimino]-3-(1-methyl-6-oxo-1,6-dihydro-pyridin-3-yl)-1-o-tolyl-propyl]-benzoylamino}-butyric acid] | 1310 nM | –
19 | O/N=C(\CC(c1ccccc1)c1ccc(C2CC2)cc1)c1ccncc1 (stereo not drawn) [Example 16, (E)-3-(4-Cyclopropyl-phenyl)-3-phenyl-1-pyridin-4-yl-propan-1-one oxime] | 178 nM | –
20 | CCn1cc(/C(CC(c2ccc(Br)cc2)c2ccccc2C)=N\O)ccc1=O (stereo not drawn) [Example 165, 5-{3-(4-Bromo-phenyl)-1-[(Z)-hydroxyimino]-3-o-tolyl-propyl}-1-ethyl-1H-pyridin-2-one] | 550 nM | –
21 | Cc1cc(Cl)ccc1C(C/C(=N\O)c1ccc(=O)n(C)c1)c1ccc(-c2ccc(C(=O)O)cc2)cc1 (stereo not drawn) [Example 227, (E)-4′-(1-(4-Chloro-2-methylphenyl)-3-(hydroxyimino)-3-(1-methyl-6-oxo-1,6-dihydropyridin-3-yl)propyl)biphenyl-4-carboxylic acid] | 55 nM | –
22 | Cc1cc(/C(C[C@H](c2ccc(Br)cc2)c2ccc(F)cc2F)=N/O)ccn1 (single isomer, unassigned) [Example 426, (−)-3-(4-Bromo-phenyl)-3-(2,4-difluoro-phenyl)-1-(2-methyl-pyridin-4-yl)-propan-1-one oxime] | 41 nM | –
23 | Cc1cc(C(CC(c2ccc(-c3ccc(F)c(C(=O)O)c3)cc2)c2ccccc2C)=NO)ccn1 (racemic) [Example 113, 4-Fluoro-4′-[3-[hydroxyimino]-3-(2-methyl-pyridin-4-yl)-1-o-tolyl-propyl]-biphenyl-3-carboxylic acid] | 215 nM | –
24 | CCOc1ccc([C@H](C/C(=N\O)c2ccnc(C)c2)c2ccc(Cl)cc2C)cc1 [Example 366, (S)-3-(4-Chloro-2-methyl-phenyl)-3-(4-ethoxy-phenyl)-1-(2-methyl-pyridin-4-yl)-propan-1-one oxime] | 171 nM | –
